From patent publication US9040725B2, “Benzocycloheptane and benzoxepine derivatives” (Janssen Pharmaceutica NV, priority 2008, dated 2015) come the findings set out here.

Structures are written as SMILES. Structures can show the parent of a compound that is named as a salt. Where two headings read alike, the source gives them in different places.

The target in one data set is T1, GHS1A-receptor (Homo sapiens, UniProt Q92847).
T1 construct: expressed in transfected cells; host or cells: HEK293
Put plainly: Ghrelin-agonism in HEK293 cells (intracellular calcium, FLIPR). In kind it is cell-based. To be noted: HEK293 cells permanently transfected with GHS1A-receptor, calcium fluorescence (fluo-4 or Kit-3), EC50 in M, read-out: pEC50 (converted). The gist of the method: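 HEK293 cells stably expressing GHS1A receptor loaded with fluo-4 or Kit-3 for 1 h at 37° C. Compound-triggered calcium fluorescence (ex 488, em >520 nm) recorded on FLIPR; response expressed relative to maximal ionomycin signal.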
(In general: Calcium assays in cells follow changes in intracellular calcium, usually with a dye or a luminescent sensor.)

A further data set relates to NMRI-mice. Put plainly: Acceleration of gastric emptying and small intestinal propulsion in NMRI-mice. In kind it is in vivo. Particulars: Mus musculus, sc, lowest active dose, subcutaneous, 30 min before phenol red test meal. The gist of the method:
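Male NMRI mice (~25 g, fasted 20 h) received compound sc 30 min before a 0.3 ml gavaged chocolate nutridrink meal with phenol red (5 mg/ml). LAD is the lowest active dose per parameter.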

Setting [1] is: active when >60% of animals had phenol red front beyond 85% of small intestinal length, read-out: LAD (mg/kg) Small intestinal propulsion.
The mark [2] stands for this setting: stomach content 15 min after meal, active when >60% of animals below 0.9 extinction units, read-out: LAD (mg/kg) Gastric emptying.

T1 sequence (Q92847 whole entry): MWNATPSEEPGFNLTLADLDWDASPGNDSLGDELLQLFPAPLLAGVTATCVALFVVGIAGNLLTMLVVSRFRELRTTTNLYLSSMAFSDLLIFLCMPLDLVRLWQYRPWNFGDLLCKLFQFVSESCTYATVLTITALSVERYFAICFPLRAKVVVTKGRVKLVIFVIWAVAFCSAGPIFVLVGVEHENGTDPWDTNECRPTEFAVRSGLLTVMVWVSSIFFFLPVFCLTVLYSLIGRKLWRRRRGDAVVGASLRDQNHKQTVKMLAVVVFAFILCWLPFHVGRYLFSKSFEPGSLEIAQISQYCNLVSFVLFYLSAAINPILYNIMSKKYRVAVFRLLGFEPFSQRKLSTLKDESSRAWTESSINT

Consider `COc1ccc(C2CCCc3ccccc3C2(O)CCCN2CCN(C(C)=O)CC2)cc1` (racemic) [Compound 71], for which the melting point (usually the temperature of the solid-liquid transition) worked out at 165.1 °C. Also, at GHS1A-receptor, the EC50 was above 10 µM.
`CC(=O)N1CCN(CCCC2(O)c3ccccc3CCCC2c2ccc(C)cc2)CC1` (racemic) [Compound 34] came in with a melting point of 216.2 °C. The EC50 on GHS1A-receptor was 3.16 µM.
With `CC(C)NCCCC1(O)c2ccccc2CCCC1c1cnc2ccccc2c1` (racemic) [Compound 86], the melting point worked out at 115.2 °C. Also, the EC50 at GHS1A-receptor is 0.631 µM.
In the case of `CN(C)CCCC1(O)c2ccccc2CCCC1c1cnc2ccccc2c1` (racemic) [Compound 85], the melting point is 150.3 °C. For the same compound, the EC50 at GHS1A-receptor is 0.1 µM. For the same compound, the minimal effective dose in the data set with NMRI-mice (setting [1]) was above 10 mg/kg. In addition, in the data set on NMRI-mice (setting [2]), the minimal effective dose was above 10 mg/kg.
For `COc1cccc(C2CCCc3ccccc3C2(O)CCCN2CCN(C(C)=O)CC2)c1` (racemic) [Compound 63], the melting point amounted to 153 °C. Besides, on GHS1A-receptor, the EC50 was above 10 µM.
Turning to `Cc1cccc(C2CCCc3ccccc3C2(O)CCCN2CCOCC2)c1` (racemic) (as salt: oxalate) [Compound 25], the melting point stood at 204.8 °C.
The same measure, in the same setting: for `COCCN(C)CCCC1(O)c2ccccc2CCCC1c1ccc(C)cc1` (racemic) (as salt: oxalate) [Compound 30] the value was 144.9 °C; for `OC1(CCCN2CCCC2)c2ccccc2CCCC1c1ccccc1` (racemic) (as salt: oxalate) [Compound 21], 202 °C; for `COCCN(C)CCCC1(O)c2ccccc2CCCC1c1ccc(O)cc1` (racemic) (as salt: oxalate) [Compound 37], 191.1 °C.
As for `COCCN(C)CCCC1(O)c2ccccc2CCCC1c1ccc(F)cc1F` (racemic) (as salt: oxalate) [Compound 58], the melting point turned out to be 140 °C.
Same read-out and setting: to `CCN(CC)CCCC1(O)c2ccccc2CCCC1c1ccc(Cl)cc1` (racemic) (as salt: HCl) [Compound 46] belongs 189.8 °C; to `OC1(CCCN2CCCCC2)c2ccccc2CCCC1c1ccc(F)cc1F` (racemic) (as salt: oxalate) [Compound 59], 211.5 °C.
On to `CCN(CC)CCCC1(O)c2ccccc2CCCC1c1ccc(O)cc1` (racemic) [Compound 36], for which the melting point amounted to 141.4 °C. The EC50 on GHS1A-receptor is 6.31 µM.
Consider `CNCCCC1(O)c2ccccc2CCCC1c1ccc(OC)cc1` (racemic) (as salt: oxalate) [Compound 65], for which the melting point came to 134.3 °C.
For the compound `CCN(CC)CCCC1(O)c2ccccc2CCCC1c1ccc(C)cc1` (racemic) (as salt: oxalate) [Compound 31], the melting point amounted to 158.6 °C.
Same read-out and setting: to `CCN(CC)CCCC1(O)c2ccccc2CCCC1c1cccc(Cl)c1` (racemic) (as salt: oxalate) [Compound 41] belongs 160.3 °C; to `CNCCCC1(O)c2ccccc2CCCC1c1ccc(C)cc1` (racemic) (as salt: oxalate) [Compound 27], 235.8 °C.
`CN(C)CCCC1(O)c2ccccc2CCCC1c1cncnc1` (racemic) [Compound 84] returned a melting point of 134.3 °C. The EC50 on GHS1A-receptor is 7.94 µM.
`Cc1ccc(C2CCCc3ccccc3C2(O)CCCN2CCCC2)cc1` (racemic) [Compound 28] came in with a melting point of 139.8 °C. In addition, on GHS1A-receptor, the EC50 was 0.158 µM. Besides, in the data set on NMRI-mice (setting [1]), the minimal effective dose was above 10 mg/kg. Besides, the minimal effective dose in the data set on NMRI-mice (setting [2]) was above 10 mg/kg.
`CN(C)CCCC1(O)c2ccccc2CCCC1c1ccccc1` (single isomer, unassigned) (as salt: oxalate) [Compound 104]: the melting point was determined as 210 °C.
